# Test results published in patent publication US20200101042A1, “4-METHYLUMBELLIFERONE TREATMENT FOR IMMUNE MODULATION” (Benaroya Research Institute at Virginia Mason, priority 2013, published 2020).
# Assays:
# [1] = cited from earlier work
# [2] = system: insulin in pancreatic islets; experiment: Immuno-staining for insulin in pancreatic islets after 4-MU treatment; format: in vivo, mouse; details: DORmO mice treated with 4-MU, 8 week start treatment group
# Text: The animals stained for HA were also stained for insulin. […] The pictures in the upper row show representative images of insulin staining in pancreatic islets in control animals treated with normal chow, (left column) or treated with 4-MU (right column).
# [3] = system: cells infiltrating into the spinal cord; experiment: Immunologic profile of cells infiltrating the spinal cord at peak of EAE; format: in vivo, mouse; details: for CD4+ T-cell infiltration into the spinal cord: EAE day 22 after immunization
# Protocol: The effect of 4-MU treatment on EAE pathogenesis was analyzed by evaluating the immunologic profile of cells infiltrating into the spinal cord at the peak of disease (day 22 after immunization).
# Further, considering the differential pathologic roles that Th1 and Th17 cells have in EAE (Axtell, R. C., et al., Clin. Rev. Allergy Immunol. 44, 114-120 (2013); Lowther, D. E., et al., Acta Neuropathol. 126, 501-515 (2013)), this change in the local Th cell profile can contribute to the prevention of the autoimmune attack on myelin.
# [4] = system: HA accumulation in the pancreatic islets; experiment: Immuno-staining for HA in pancreatic islets after 4-MU treatment; format: in vivo, mouse; details: DORmO mice, 8 week start treatment group, versus DORmO mice on control chow
# Text: HA accumulation in the pancreatic islets was investigated through immuno-staining after 4-MU treatment in a few mice of the 8 week start treatment group. […] The pictures in the upper row show representative images of a HA staining in pancreatic islets in control animals treated with normal chow, left column, or treated with 4-MU, right column.
# DORmO mice = experiment: Blood glucose in DORmO double transgenic mouse model of autoimmune diabetes, 4-MU in chow; format: in vivo
# Text: To determine that HA accumulates in the pancreatic islets and creates a permissive environment for autoimmune attacks during autoimmune diabetes disease progression, the DORmO double transgenic mouse model of autoimmune diabetes was used. DORmO mice predictably develop autoimmune diabetes because they are bred to have both a target antigen on their insulin producing beta-cells as well as an immune system that specifically recognizes that antigen. DORmO mice are the result of a cross between RIPmOVA mice (a strain that carries a gene specific for hen egg ovalbumin (OVA) that is only expressed on beta-cells, emulating the auto-antigen) and DO11.10 mice (a strain that carries a T-cell receptor transgene specific for OVA, emulating auto-reactive CD4+ T cells). […] A group of control mice was treated with 4-MU as well in order to see if 4-MU alters the blood glucose levels of those mice. […] The DORmO mice on control chow had to be sacrificed after getting diabetic according to the animal protocol. Another treatment group was established where the 4-MU treatment started at 12 weeks of age when the DORmO mice were already diabetic. […] The animals stained for HA were also stained for insulin. […] The pictures in the upper row show representative images of insulin staining in pancreatic islets in control animals treated with normal chow, (left column) or treated with 4-MU (right column).
# CD4+ CD25+ cells = experiment: CD25+ of CD4+ T-cells in spleen and lymph nodes of EAE mice; format: in vivo, mouse; details: EAE subjects, 4-MU started before immunization (pretreatment protocol)
# [5] = system: MOG35-55 peptide-induced EAE in C57B1/6 mice; experiment: MOG35-55 peptide-induced EAE mouse model of MS, EAE incidence and score; format: in vivo; details: for incidence of EAE: control 9/10
# Text: FIGS. 12A, 12B, and 12C graphically illustrate the mean EAE score as a function of days post induction in subjects treated with 4-MU according to a pretreatment, treatment, or intervention protocol, respectively.
# For FIGS. 12A, 12B, and 12C, *P<0.05, ** P<0.01, ***P<0.001, Mann-Whitney.
# FoxP3+ T-cells = experiment: FoxP3+ T-cell numbers in lymphatic tissue after 4-MU treatment; format: in vivo, mouse
# [6] = EAE mice after 4-MU treatment, FIG. 13B
# [7] = EAE mice, 4-MU treatment, FIG. 13A
smiles,measurement,setting,value
"Cc1cc(=O)oc2cc(O)ccc12 [4-MU, 4-methylumbelliferone]",toxicity,[1]; general statement,no known toxicity
same,safety profile in clinical use,"[1]; human use in Europe and Asia (biliary spasm, gallstones)",excellent safety profile
same,insulin in the islets (immuno-staining),[2],still had a significant amount of insulin in the islets
same,CD4+ T-cell infiltration into the spinal cord,[3]; intervention treatment,moderately reduced
same,CD4+ T-cell infiltration into the spinal cord,[3]; pretreatment and early treatment with 4-MU,substantially reduced
same,IFN-γ producing Th1 populations among CD4+ T-cells in the CNS,[3]; [6],mainly reduced
same,IL-17 producing Th17 population among CD4+ T-cells in the CNS,[3]; [6],less affected
same,total lymphocyte counts in lymphatic organs (generalized immunosuppression),[3]; EAE mice on 4-MU,unchanged
same,infiltration of CD8+ and CD4+ lymphocytes and macrophages,[3]; [7],reduced infiltration
same,total numbers of cell infiltrates in spinal cord,[3]; [7],lower total numbers of cell infiltrates
same,HA accumulation in pancreatic islets (immuno-staining),[4],significant decrease
same,normo-glycemia,"DORmO mice; DORmO mice, 4-MU added to chow",restored normo-glycemia
same,blood glucose level / development of diabetes,"DORmO mice; DORmO mice, 4-MU in chow starting at 5 weeks of age",not to become diabetic
same,blood glucose level,"DORmO mice; DORmO mice, 4-MU treatment starting at 8 weeks of age, at 23 weeks of age",normal blood glucose level
same,blood glucose levels,"DORmO mice; already diabetic DORmO mice, 4-MU starting at 12 weeks of age, after 1 week of treatment",decrease of the blood glucose levels
same,number of CD4+ CD25+ cells in the spleen and lymph nodes,CD4+ CD25+ cells,increased number
same,EAE disease severity (mean EAE score),"[5]; intervention protocol, 4-MU after the onset of neurological symptoms",significantly ameliorated disease as early as 3 days after start of treatment
same,incidence of EAE,"[5]; pretreatment protocol, 4-MU 5% w/w in chow from 4 days before immunization",1/7
same,incidence of EAE,"[5]; treatment protocol, 4-MU 5% w/w in chow after immunization boost on day 2, before symptoms",2/10
same,"FoxP3+ T-cells in spleen, MLN, ILN and PLN","FoxP3+ T-cells; D0.11 mice following OVA immunization, FIG. 13D",increase in FoxP3+ T-cells
same,general immunosuppression,"FoxP3+ T-cells; D0.11 mice on 4-MU, data not shown",did not induce a general immunosuppression
same,numbers of FoxP3+ T-cells in lymphatic tissue,"FoxP3+ T-cells; healthy mice, data not shown",significantly increased
